Toxic doses and inconclusive results are not listed. Cut-off read from the data, not from the text of the source: active = T/C of 150% or more; inactive = T/C below 125%.
Test system: L1210 leukemia ip in BDF1 mice, survival T/C
Assay: NCI In Vivo Anticancer Drug Screen. Data for tumor model L1210 Leukemia (intraperitoneal) in B6D2F1 (BDF1) mice
Details: endpoint: mean survival time, higher = longer survival
In short: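 Value reflects the ratio of survival in compound-treated mice to survival in vehicle-treated controls, with both groups carrying the same transplanted tumor.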

[1] = dose: 100.0 mg/kg/injection, schedule: Q01DX009 (ip), vehicle: Klucel (hydroxypropylcellulose) (HPC)
[2] = dose: 100.0 mg/kg/injection, schedule: Q04DX003 (ip), vehicle: Klucel (hydroxypropylcellulose) (HPC)
[3] = dose: 200.0 mg/kg/injection, schedule: Q01DX009 (ip), vehicle: Klucel (hydroxypropylcellulose) (HPC)
[4] = dose: 200.0 mg/kg/injection, schedule: Q04DX003 (ip), vehicle: Klucel (hydroxypropylcellulose) (HPC)
[5] = dose: 400.0 mg/kg/injection, schedule: Q04DX003 (ip), vehicle: Klucel (hydroxypropylcellulose) (HPC)
[6] = dose: 100.0 mg/kg/injection, schedule: Q01DX001 (ip), vehicle: saline
[7] = dose: 200.0 mg/kg/injection, schedule: Q01DX001 (ip), vehicle: saline
[8] = dose: 400.0 mg/kg/injection, schedule: Q01DX001 (ip), vehicle: saline
[9] = dose: 50.0 mg/kg/injection, schedule: Q01DX009 (ip), vehicle: saline with Tween-80
[10] = dose: 100.0 mg/kg/injection, schedule: Q01DX009 (ip), vehicle: saline with Tween-80
[11] = dose: 100.0 mg/kg/injection, schedule: Q01DX009 (ip), vehicle: saline
[12] = dose: 100.0 mg/kg/injection, schedule: Q04DX003 (ip), vehicle: saline
[13] = dose: 200.0 mg/kg/injection, schedule: Q01DX009 (ip), vehicle: saline with Tween-80
[14] = dose: 200.0 mg/kg/injection, schedule: Q01DX009 (ip), vehicle: saline
[15] = dose: 200.0 mg/kg/injection, schedule: Q04DX003 (ip), vehicle: saline
[16] = dose: 25.0 mg/kg/injection, schedule: Q01DX009 (ip), vehicle: water
[17] = dose: 50.0 mg/kg/injection, schedule: Q01DX009 (ip), vehicle: water
[18] = dose: 100.0 mg/kg/injection, schedule: Q01DX009 (ip), vehicle: water
[19] = dose: 200.0 mg/kg/injection, schedule: Q01DX009 (ip), vehicle: water
[20] = dose: 400.0 mg/kg/injection, schedule: Q01DX009 (ip), vehicle: water
[21] = dose: 100.0 mg/kg/injection, schedule: Q01DX001 (ip), vehicle: carboxymethylcellulose (CMC)
[22] = dose: 200.0 mg/kg/injection, schedule: Q01DX001 (ip), vehicle: carboxymethylcellulose (CMC)
[23] = dose: 400.0 mg/kg/injection, schedule: Q01DX001 (ip), vehicle: carboxymethylcellulose (CMC)

Measured: T/C

FC(F)(F)c1cc(Br)c2ccc3ncccc3c2n1
inactive: dose: 100.0 mg/kg/injection, schedule: Q04DX002 (ip), vehicle: saline with Tween-80 111 % of control | dose: 200.0 mg/kg/injection, schedule: Q04DX002 (ip), vehicle: saline with Tween-80 107 % of control | dose: 400.0 mg/kg/injection, schedule: Q04DX002 (ip), vehicle: saline with Tween-80 96 % of control

Clc1cc(Cl)c(I)c(Cl)c1
inactive: [1] 95 % of control | [2] 93 % of control | [3] 95 % of control | [4] 95 % of control | [5] 92 % of control

CS(=O)(=O)OCCN(CCOS(C)(=O)=O)c1ccc(C=Nc2cccc(Br)c2)cc1
inactive: dose: 2.5 mg/kg/injection, schedule: Q04DX003 (ip), vehicle: Klucel (hydroxypropylcellulose) (HPC) 103 % of control | dose: 5.0 mg/kg/injection, schedule: Q04DX003 (ip), vehicle: Klucel (hydroxypropylcellulose) (HPC) 109 % of control | dose: 10.0 mg/kg/injection, schedule: Q04DX003 (ip), vehicle: Klucel (hydroxypropylcellulose) (HPC) 117 % of control | [2] 92 % of control

Cc1c2ccccc2nc2ccccc12
inactive: [6] 106 % of control | [7] 98 % of control | [8] 101 % of control

CC(=O)OC1CC2CCC1(C)C2(C)C (stereo unspecified)
inactive: [9] 100 % of control | dose: 50.0 mg/kg/injection, schedule: Q01DX009 (ip), vehicle: saline 96 % of control | [10] 96 % of control | [11] 98 % of control | [12] 87 % of control | [13] 96 % of control | [14] 89 % of control | [15] 90 % of control

CN(C)CCS(=O)(=O)O
inactive: [12] 104 % of control | [15] 104 % of control | dose: 400.0 mg/kg/injection, schedule: Q04DX003 (ip), vehicle: saline 104 % of control

O=S(=O)(O)CC1(CS(=O)(=O)O)COC1
inactive: [6] 95 % of control | dose: 100.0 mg/kg/injection, schedule: Q01DX009 (ip), vehicle: acetone 118 % of control | [7] 95 % of control | dose: 200.0 mg/kg/injection, schedule: Q01DX009 (ip), vehicle: acetone 106 % of control | [8] 96 % of control | dose: 400.0 mg/kg/injection, schedule: Q01DX009 (ip), vehicle: acetone 95 % of control

COc1ccc(C(=O)Nc2ccccc2)cc1[N+](=O)[O-]
inactive: [1] 96 % of control | [10] 101 % of control | dose: 100.0 mg/kg/injection, schedule: Q04DX003 (ip), vehicle: saline with Tween-80 101 % of control | [3] 98 % of control | [13] 94 % of control | dose: 200.0 mg/kg/injection, schedule: Q04DX003 (ip), vehicle: saline with Tween-80 97 % of control | dose: 400.0 mg/kg/injection, schedule: Q01DX009 (ip), vehicle: Klucel (hydroxypropylcellulose) (HPC) 98 % of control | dose: 400.0 mg/kg/injection, schedule: Q01DX009 (ip), vehicle: saline with Tween-80 86 % of control | dose: 400.0 mg/kg/injection, schedule: Q04DX003 (ip), vehicle: saline with Tween-80 101 % of control

CN(C)c1ccc(CN2CCCN(Cc3ccc(N(C)C)cc3)C2c2ccc(N(CCCl)CCCl)cc2)cc1
inactive: [2] 102 % of control | [4] 104 % of control | [5] 100 % of control

CC(=O)NC(c1ccccc1)C(C)C (stereo unspecified)
inactive: dose: 100.0 mg/kg/injection, schedule: Q01DX001 (ip), vehicle: saline with Tween-80 92 % of control | dose: 200.0 mg/kg/injection, schedule: Q01DX001 (ip), vehicle: saline with Tween-80 103 % of control

CC(=O)Oc1cc(-c2ccccc2)c(OC(C)=O)cc1-c1ccccc1
inactive: [16] 96 % of control | [17] 101 % of control | [18] 94 % of control | [19] 101 % of control | [20] 100 % of control

CS(=O)(=O)OCC(O)C(O)CI (stereo unspecified)
inactive: dose: 75.0 mg/kg/injection, schedule: Q01DX001 (ip), vehicle: water 104 % of control | dose: 150.0 mg/kg/injection, schedule: Q01DX001 (ip), vehicle: water 111 % of control | dose: 300.0 mg/kg/injection, schedule: Q01DX001 (ip), vehicle: water 116 % of control

O=S(=O)(Nc1ccccc1)c1ccccc1
inactive: [2] 98 % of control | [4] 107 % of control | [5] 98 % of control

CC(=O)N(C(C)C)C(C)C
inactive: dose: 0.75 mg/kg/injection, schedule: Q01DX001 (ip), vehicle: saline with Tween-80 100 % of control | dose: 1.5 mg/kg/injection, schedule: Q01DX001 (ip), vehicle: saline with Tween-80 97 % of control | dose: 3.0 mg/kg/injection, schedule: Q01DX001 (ip), vehicle: saline with Tween-80 102 % of control | dose: 3.12 mg/kg/injection, schedule: Q01DX001 (ip), vehicle: saline with Tween-80 98 % of control | dose: 12.5 mg/kg/injection, schedule: Q01DX001 (ip), vehicle: saline with Tween-80 100 % of control

CC[C@@H]1O[C@@H]([C@@H]2CC[C@](O)([C@]3(C)CC[C@@H]([C@@H](C)[C@@]4(O)CC[C@H](C)[C@@H](C[C@@]5(O)O[C@@H]([C@@H](C)[C@H](O)C[C@H]6CC[C@H](C)[C@@H]([C@@H](C)C(=O)O)O6)CC[C@@H]5C)O4)O3)O2)CC[C@@]1(C)O
inactive: dose: 0.09 mg/kg/injection, schedule: Q04DX002 (ip), vehicle: saline 93 % of control | dose: 0.19 mg/kg/injection, schedule: Q04DX002 (ip), vehicle: saline 90 % of control | dose: 0.39 mg/kg/injection, schedule: Q04DX002 (ip), vehicle: saline 87 % of control

Cc1noc(/N=C/c2cccc(Cl)c2)c1C
inactive: [6] 101 % of control | [7] 105 % of control | [8] 101 % of control

O=C1NC(=O)C(=Cc2csc3ccccc23)C(=O)N1
inactive: [21] 94 % of control | [22] 96 % of control

OCC(O)COc1ccc(Cl)cc1Cl (stereo unspecified)
inactive: [10] 105 % of control | [13] 101 % of control

Cc1ccc(NC(=O)N(O)C2CCCCC2C#N)cc1 (stereo unspecified)
inactive: [7] 96 % of control | [8] 91 % of control

COc1cc(Cl)ccc1NC(=O)Oc1ccc(C(=O)OCc2ccccc2)cc1
inactive: [11] 103 % of control | [14] 97 % of control | dose: 400.0 mg/kg/injection, schedule: Q01DX009 (ip), vehicle: saline 111 % of control

CCOC(=O)Nc1nc(NC(=O)OCC)c(Cl)nc1Cl
inactive: [16] 104 % of control | [17] 100 % of control | [18] 114 % of control | [19] 106 % of control | [20] 97 % of control

O=C1CC(=O)N(Cc2ccccc2)C(=O)N1Cc1ccccc1
inactive: [21] 86 % of control | [22] 92 % of control | [23] 90 % of control

COc1ccc(NC(=O)N(O)C2(C#N)CCCCC2)cc1
inactive: [21] 98 % of control | [22] 94 % of control | [23] 88 % of control

CCOC(=O)N(CC(C)C(=O)OC)C(C)C (stereo unspecified)
inactive: dose: 100.0 mg/kg/injection, schedule: Q01DX Z (ip), vehicle: saline 100 % of control | dose: 200.0 mg/kg/injection, schedule: Q01DX Z (ip), vehicle: saline 97 % of control

CCN(CC)C(=O)c1ccc[n+](CC(=O)Nc2ccc(Cl)cc2)c1
inactive: dose: 12.5 mg/kg/injection, schedule: Q01DX009 (ip), vehicle: saline with Tween-80 97 % of control | dose: 12.5 mg/kg/injection, schedule: Q04DX003 (ip), vehicle: saline with Tween-80 100 % of control | dose: 25.0 mg/kg/injection, schedule: Q01DX009 (ip), vehicle: saline with Tween-80 97 % of control | dose: 25.0 mg/kg/injection, schedule: Q04DX003 (ip), vehicle: saline with Tween-80 94 % of control | [9] 97 % of control | dose: 50.0 mg/kg/injection, schedule: Q04DX003 (ip), vehicle: saline with Tween-80 103 % of control

— PubChem BioAssay AID248 (DTP/NCI, 2004)
